Reference: the supplement of paper PMC6045584
± gives the standard deviation of the averaged measurements.

Assays:
[1] = compound: C[C@@H]1CN(CC(=O)Nc2ccc3c(c2)Cc2cccc(-c4cc(=O)cc(N5CCOCC5)o4)c2S3)C[C@H](C)O1; assay: surviving fraction relative to DMSO-only wells; higher = less growth inhibition; settings: exposure time: 5 days
Procedure, shortened: (§1)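 Viability values are CellTiter-Glo luminescence readings, given as surviving fraction against the median of DMSO-only wells. The readings were taken after 10 minutes at room temperature, following five days of continuous exposure to inhibitors at 0.5, 1, 5, 10, 50, 100, 500 and 1000 nM that began 24 hours after log-phase tumour cell lines were seeded at 250–500 cells per well in 384-well plates. Every line was screened three times and kept only if replicate Pearson r >0.7 and median Z' >0.3.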

BMN-673 = compound: Cn1ncnc1[C@H]1c2n[nH]c(=O)c3cc(F)cc(c23)N[C@@H]1c1ccc(F)cc1 [BMN-673]; assay: as above; settings: exposure time: 5 days
Procedure, shortened: as §1

Test System | surviving fraction ([1]; 0.5 nM) | surviving fraction ([1]; 1 nM) | surviving fraction ([1]; 5 nM) | surviving fraction ([1]; 10 nM) | surviving fraction ([1]; 50 nM) | surviving fraction ([1]; 100 nM) | surviving fraction ([1]; 500 nM) | surviving fraction ([1]; 1000 nM) | surviving fraction (BMN-673; 0.5 nM) | surviving fraction (BMN-673; 1 nM) | surviving fraction (BMN-673; 5 nM) | surviving fraction (BMN-673; 10 nM) | surviving fraction (BMN-673; 50 nM) | surviving fraction (BMN-673; 100 nM) | surviving fraction (BMN-673; 500 nM) | surviving fraction (BMN-673; 1000 nM)
SYO1 SYNOVIAL | 0.997 ± 0.021 | 1 ± 0.029 | 0.987 ± 0.049 | 1.07 ± 0.019 | 0.993 ± 0.023 | 1.03 ± 0.018 | 0.894 ± 0.019 | 0.781 ± 0.011 | 0.855 ± 0.052 | 0.783 ± 0.023 | 0.499 ± 0.0035 | 0.336 ± 0.0059 | 0.168 ± 0.0078 | 0.125 ± 0.0048 | 0.0544 ± 0.0063 | 0.0423 ± 0.00058
VCAP PROSTATE | 1.01 ± 0.035 | 1.08 ± 0.066 | 1.11 ± 0.14 | 1.18 ± 0.15 | 1.19 ± 0.094 | 1.14 ± 0.11 | 0.922 ± 0.057 | 0.967 ± 0.079 | 1.11 ± 0.084 | 0.947 ± 0.086 | 0.995 ± 0.03 | 0.976 ± 0.08 | 0.758 ± 0.029 | 0.711 ± 0.12 | 0.397 ± 0.029 | 0.385 ± 0.017
HELA CERVIX | 1.1 ± 0.048 | 1.06 ± 0.049 | 1.115 ± 0.011 | 1.06 ± 0.039 | 1.13 ± 0.03 | 1.11 ± 0.021 | 1.21 ± 0.029 | 1.22 ± 0.072 | 1 ± 0.045 | 1 ± 0.058 | 1.07 ± 0.038 | 1.031 ± 0.0089 | 1.1 ± 0.11 | 1.14 ± 0.11 | 0.736 ± 0.037 | 0.606 ± 0.035
SAOS2 BONE | 1.08 ± 0.037 | 1.01 ± 0.018 | 1.07 ± 0.021 | 1.1 ± 0.051 | 0.895 ± 0.057 | 0.977 ± 0.12 | 0.8487 ± 0.0063 | 0.774 ± 0.01 | 1.05 ± 0.058 | 1 ± 0.029 | 0.999 ± 0.077 | 0.831 ± 0.069 | 0.675 ± 0.018 | 0.489 ± 0.047 | 0.285 ± 0.022 | 0.219 ± 0.047
HCC1395 BREAST | 0.955 ± 0.14 | 0.962 ± 0.022 | 0.936 ± 0.062 | 0.936 ± 0.035 | 0.92 ± 0.072 | 0.995 ± 0.08 | 0.919 ± 0.09 | 0.965 ± 0.12 | 1 ± 0.13 | 0.991 ± 0.081 | 0.86 ± 0.054 | 0.967 ± 0.045 | 0.892 ± 0.064 | 0.8195 ± 0.0048 | 0.715 ± 0.039 | 0.637 ± 0.12
HCC202 BREAST | 1.01 ± 0.17 | 0.911 ± 0.089 | 0.845 ± 0.24 | 1.11 ± 0.26 | 0.84 ± 0.11 | 0.946 ± 0.25 | 0.845 ± 0.18 | 0.838 ± 0.28 | 0.932 ± 0.39 | 1.15 ± 0.44 | 0.688 ± 0.18 | 0.769 ± 0.34 | 0.661 ± 0.13 | 0.566 ± 0.14 | 0.81 ± 0.05 | 0.671 ± 0.11
MDAMB361 BREAST | 0.778 ± 0.042 | 0.885 ± 0.074 | 0.776 ± 0.078 | 0.756 ± 0.083 | 0.591 ± 0.036 | 0.765 ± 0.056 | 0.548 ± 0.045 | 0.529 ± 0.071 | 0.804 ± 0.064 | 0.806 ± 0.018 | 0.829 ± 0.013 | 0.82 ± 0.041 | 0.856 ± 0.026 | 0.798 ± 0.07 | 0.782 ± 0.038 | 0.764 ± 0.062
COLO320DM LARGE INTESTINE | 1.04 ± 0.11 | 1.06 ± 0.12 | 1.05 ± 0.13 | 1.07 ± 0.059 | 1.04 ± 0.033 | 1.09 ± 0.037 | 1.03 ± 0.056 | 0.99 ± 0.015 | 1.16 ± 0.049 | 1.1 ± 0.11 | 1.01 ± 0.038 | 0.951 ± 0.04 | 0.781 ± 0.061 | 0.704 ± 0.059 | 0.606 ± 0.0097 | 0.5533 ± 0.0029
SCC003 HEADNECK | 1.06 ± 0.054 | 1.03 ± 0.013 | 1.12 ± 0.077 | 1.08 ± 0.045 | 0.984 ± 0.033 | 0.967 ± 0.096 | 1.04 ± 0.1 | 0.908 ± 0.091 | 1.06 ± 0.053 | 1.07 ± 0.035 | 1.04 ± 0.015 | 1.03 ± 0.044 | 0.913 ± 0.019 | 0.713 ± 0.059 | 0.588 ± 0.012 | 0.475 ± 0.066
MG63 BONE | 1.03 ± 0.032 | 1.03 ± 0.038 | 1.076 ± 0.0081 | 1.1 ± 0.04 | 1.06 ± 0.02 | 1.08 ± 0.028 | 0.971 ± 0.025 | 0.919 ± 0.022 | 1.03 ± 0.023 | 0.988 ± 0.026 | 0.989 ± 0.028 | 0.917 ± 0.017 | 0.646 ± 0.014 | 0.432 ± 0.039 | 0.285 ± 0.0053 | 0.193 ± 0.029
SG43 HEADNECK | 0.871 ± 0.21 | 1.22 ± 0.069 | 1.03 ± 0.14 | 1.16 ± 0.14 | 1.37 ± 0.25 | 1.38 ± 0.36 | 1.31 ± 0.19 | 1.43 ± 0.061 | 1.19 ± 0.23 | 0.909 ± 0.061 | 0.694 ± 0.044 | 0.678 ± 0.046 | 0.74 ± 0.093 | 0.703 ± 0.089 | 0.678 ± 0.091 | 0.785 ± 0.056
MDAMB134 BREAST | 1.04 ± 0.082 | 0.967 ± 0.073 | 0.955 ± 0.11 | 0.926 ± 0.04 | 0.678 ± 0.16 | 0.714 ± 0.052 | 0.7305 ± 0.0021 | 0.63 ± 0.049 | 0.955 ± 0.085 | 0.908 ± 0.14 | 0.971 ± 0.057 | 0.929 ± 0.014 | 1.01 ± 0.067 | 0.991 ± 0.025 | 0.857 ± 0.23 | 0.775 ± 0.08
SG27 HEADNECK | 1.02 ± 0.1 | 0.976 ± 0.047 | 1.13 ± 0.079 | 1.02 ± 0.15 | 0.95 ± 0.056 | 0.988 ± 0.11 | 1.01 ± 0.061 | 1.03 ± 0.1 | 1.15 ± 0.04 | 1.08 ± 0.11 | 1.06 ± 0.046 | 0.978 ± 0.12 | 1.02 ± 0.17 | 0.927 ± 0.12 | 0.917 ± 0.038 | 0.877 ± 0.16
143B BONE | 1.03 ± 0.034 | 0.994 ± 0.016 | 1.02 | 1.02 ± 0.03 | 1.03 ± 0.035 | 1.01 ± 0.013 | 1 ± 0.011 | 0.9405 ± 0.0064 | 1.08 ± 0.047 | 1.11 ± 0.086 | 1.1 ± 0.054 | 1.09 ± 0.073 | 1.11 ± 0.16 | 1.05 ± 0.064 | 0.733 ± 0.06 | 0.528 ± 0.052
NOS1 BONE | 1.05 ± 0.15 | 1.07 ± 0.1 | 1.12 ± 0.13 | 1.23 ± 0.13 | 1.047 ± 0.007 | 1.12 ± 0.15 | 0.818 ± 0.029 | 0.661 ± 0.057 | 1.1 ± 0.058 | 0.953 ± 0.093 | 0.683 ± 0.026 | 0.66 ± 0.066 | 0.633 ± 0.085 | 0.564 ± 0.051 | 0.551 ± 0.042 | 0.552 ± 0.026
LNCAP PROSTATE | 1.08 ± 0.12 | 1.12 ± 0.15 | 1.11 ± 0.11 | 1.12 ± 0.16 | 1.4 ± 0.029 | 1.43 ± 0.095 | 1.4 ± 0.11 | 1.21 ± 0.15 | 0.85 ± 0.052 | 0.849 ± 0.05 | 0.604 ± 0.059 | 0.407 ± 0.037 | 0.297 ± 0.015 | 0.254 ± 0.0095 | 0.181 ± 0.014 | 0.165 ± 0.022
JURKAT HAEMATOPOIETIC AND LYMPHOID TISSUE | 1.1 ± 0.013 | 1.123 ± 0.0098 | 1.08 ± 0.016 | 1.09 ± 0.026 | 1.05 ± 0.026 | 1.03 ± 0.029 | 1.01 ± 0.018 | 0.96 ± 0.029 | 1.04 ± 0.027 | 1.04 ± 0.015 | 0.863 ± 0.035 | 0.838 ± 0.014 | 0.601 ± 0.049 | 0.503 ± 0.033 | 0.123 ± 0.007 | 0.0493 ± 0.0047
CHLA90 AUTONOMIC GANGLIA | 1.03 ± 0.052 | 1.07 ± 0.045 | 0.994 ± 0.07 | 1.08 ± 0.07 | 0.979 ± 0.0078 | 0.999 ± 0.068 | 1 ± 0.11 | 0.966 ± 0.041 | 0.939 ± 0.01 | 0.982 ± 0.068 | 0.906 ± 0.051 | 0.897 ± 0.045 | 0.938 ± 0.086 | 0.906 ± 0.083 | 0.814 ± 0.04 | 0.714 ± 0.026
MDAMB468 BREAST | 0.975 ± 0.015 | 0.921 ± 0.024 | 0.951 ± 0.026 | 1 ± 0.025 | 0.935 ± 0.018 | 1 ± 0.091 | 0.824 ± 0.12 | 0.756 ± 0.076 | 0.993 ± 0.083 | 0.914 ± 0.024 | 0.824 ± 0.1 | 0.728 ± 0.12 | 0.578 ± 0.039 | 0.451 ± 0.053 | 0.305 ± 0.033 | 0.243 ± 0.013
HSSYII SYNOVIAL | 0.975 ± 0.027 | 0.956 ± 0.032 | 0.931 ± 0.015 | 0.99 ± 0.041 | 0.891 ± 0.011 | 0.867 ± 0.043 | 0.84 ± 0.055 | 0.74 ± 0.041 | 0.867 ± 0.022 | 0.819 ± 0.015 | 0.506 ± 0.026 | 0.34 ± 0.017 | 0.19 ± 0.0066 | 0.132 ± 0.011 | 0.0702 ± 0.0064 | 0.06017 ± 0.00029
H23 LUNG | 1.08 ± 0.042 | 1.05 ± 0.021 | 1.11 ± 0.048 | 1.1 ± 0.033 | 1.09 ± 0.083 | 1.17 ± 0.056 | 1.06 ± 0.036 | 1.05 ± 0.045 | 1.07 ± 0.04 | 1.07 ± 0.056 | 1.06 ± 0.054 | 0.937 ± 0.014 | 0.779 ± 0.024 | 0.688 ± 0.055 | 0.507 ± 0.23 | 0.238 ± 0.02
